The text below walks through data of patent publication US20020120098A1, “Enhanced stimulation of erythropoiesis” (priority 1996, published 2002).

In assay [1] the test system is total erythroid progenitors (BFU-E+CFU-E). The assay is described as follows: Inhibition of succinylacetone (SA) toxicity to erythroid progenitors in CFA. The conditions noted are these: 0.5 mM SA; 100 μM hemin, 15.6 μM HAo or HEMOLINK, 250 μM FeCl3; ambient O2, 14 days. It counts as cell-based, human. The method, then: The effect of the various additives on the inhibitory effect of succinylacetone (SA), a heme synthesis inhibitor, on erythroid progenitors was determined. Primary LDMNC were cultured in methyl cellulose as described in Example 1. Cord blood LDMN were plated in the presence of 1.0 mg/ml HAo (15.6 μM; n=12) or HEMOLINK™ (15.6 μM; n=5), 100 μM hemin (n=12), 250 μM FeCl3 (n=11) or no addition (n=12), in absence or presence of 0.5 mM SA. Cultures were maintained in a humidified chamber at 37° C., 5% CO2, and ambient oxygen tensions for 14 days.
Results are expressed as the number of total erythroid progenitors (BFU-E+CFU-E) present on plates treated with the various additives in the presence of SA relative to the number present on untreated plates (no SA or other addition). Significant differences in the presence of the respective additives compared to no addition (SA only; relative progenitor number=0.31) are as indicated: *p<0.001, **p<0.0001. Significant differences in the presence of the respective additives compared to no treatment (no SA; solid line at relative erythroid progenitor number=1.0) are as indicated: +p<0.05, ++p<0.001.

The next assay has as its system BFU-E. The assay can be described thus: Colony formation assay, adult peripheral blood LDMNC: BFU-E. The conditions noted are these: for fold increase in BFU-E, adult blood, 0.2 U/ml Epo: ~20% O2, compared to untreated controls (no addition) at 0.2 U/ml Epo. Type of assay: cell-based, human. As for the experimental part:
Blood was collected with informed consent from the antecubital vein of healthy adult human volunteers into vacutainers containing 143 USP U/ml sodium heparin. Low density mononuclear cells (LDMNC) were isolated by centrifugation over a density gradient as described in Example 1. Plastic adherent cells were removed by an overnight incubation in a tissue culture flask and the non-adherent cells were placed directly in a CFA. Conditions for the CFA are similar to those described in Examples 1-4.
The mean fold increase in adult blood BFU-E, CFU-E and CFU-GM progenitor number produced by 1.0 mg/ml HAo (15.6 μM) or HEMOLINK™ (15.6 μM), 100 μM hemin or 250 μM FeCl3 is shown in FIG. 9 (n=3). Cultures were maintained at ambient oxygen tensions (˜20% O2) for 14 days. The fold increase in colonies is expressed relative to control cells treated only with the respective vehicles. […] The magnitude of this increase was greater for adult than cord blood LDMNC.
The mean fold increase in adult blood BFU-E, CFU-E and CFU-GM progenitor number at 5% O2 is shown in FIG. 10 with the same additives. Results are expressed relative to control cells treated only with the respective vehicles and cultured at ambient oxygen tensions (˜20% O2). Reduced oxygen tensions (5% O)2 enhanced the growth of BFU-E which was further increased by the addition of HAo, HEMOLINK™, hemin or FeCl3. All agents stimulated a similar increase in BFU-E number (˜9-11-fold) at 5% O2 compared to untreated control cells at ambient oxygen tensions.
Mean fold increase in adult blood BFU-E, CFU-E and CFU-GM progenitor number in the presence of reduced Epo (0.2 U/ml) (n=3) at 20% O2 is shown in FIG. 11 with and without (no addition) the additives used in FIG. 9. Results are expressed relative to control cells at 2 U/ml Epo treated only with the respective vehicles (solid line at fold expansion=1.0). […] As with cord blood, CFU-GM numbers were unaffected by reductions in Epo. The addition of HAo or HEMOLINK™ to CFAs containing 0.2 U/ml Epo stimulated ˜4.5- and ˜3.5-fold increases in BFU-E and CFU-E, respectively, compared to untreated controls (no addition), restoring the progenitor number to that obtained at 2 U/ml Epo. Hemin stimulated the greatest increase in BFU-E and CFU-E (˜9- and ˜6-fold, respectively) at 0.2 U/ml Epo versus the untreated controls (no addition). FeCl3 stimulated only a ˜2-fold increase in erythroid progenitor number at 0.2 U/ml Epo.
Mean fold increase in adult blood BFU-E, CFU-E and CFU-GM progenitor number at 5% O2 in the presence of reduced Epo (0.2 U/ml) (n=3) is shown in FIG. 12 with and without the additives used in FIG. 9. […]

“Also recorded” adds a separate entry of the source.

`[Cl][Fe]([Cl])[Cl]` [FeCl3]: the “reversal of inhibitory effect of SA on erythroid progenitors (in words)” value (“reversal of inhibitory effect of SA” below) in assay [1] is “less effective than lower concentrations of hemoglobin; also recorded: unable to overcome the inhibitory effect of SA”. The “fold increase in BFU-E, adult blood, ambient O2” value in the assay with BFU-E (2 U/ml Epo, ambient O2, 1.0 mg/ml HAo or HEMOLINK, 100 μM hemin, 250 μM FeCl3, vs vehicle controls) is on record as < 3 fold.

Regarding `C=CC1=C(C)C2=Cc3c(C=C)c(C)c4[n]3[Fe-2]35([Cl])[n]6c(c(C)c(CCC(=O)O)c6=CC6=[N+]3C(=C4)C(C)=C6CCC(=O)O)=CC1=[N+]25` [hemin], the “reversal of inhibitory effect of SA” value in assay [1] is reported as “able to completely overcome the SA inhibition of erythroid colonies; also recorded: able to overcome the inhibitory effect of SA”. Further, in the assay on BFU-E, the “fold increase in BFU-E, adult blood, 0.2 U/ml Epo” value (from here on “fold increase … 0.2 U/ml Epo”) is ~9 fold.

As for “HAo: adult human hemoglobin obtained from red blood cells and purified by displacement chromatography; uncross linked product”, the “reversal of inhibitory effect of SA” value in assay [1] was “partially able to overcome the inhibitory effect of SA; also recorded: could partially reverse the SA toxicity”. Further, the “fold increase … 0.2 U/ml Epo” value in the assay on BFU-E is given as ~4.5 fold.

On to “HEMOLINK™: chemically crosslinked hemoglobin prepared by treating human hemoglobin with a polyaldehyde (O-raffinose)”, for which the “reversal of inhibitory effect of SA” value in assay [1] is “unable to fully restore erythroid progenitor numbers”. Moreover, in the assay with BFU-E, the “fold increase … 0.2 U/ml Epo” value is listed as ~4.5 fold.
